Measurements taken from patent EP1574201B1, “Composition comprising benzyloxyethanol as preservative” (KAO CORPORATION, priority 2004, dated 2005).

Assays:
[1] = system: Staphylococcus aureus IFO 13276, Escherichia coli IFO 3972, and Pseudomonas aeruginosa IFO 13275; assay: Preservative efficacy test (reduction in count of viable bacteria); assay type: cell-based; conditions: BOE and methyl paraben in combination versus each alone
Method: Preservative efficacy test was performed at 30°C by use of the bacteria written below and a sample (50 g) having a composition shown in the below-described Table 2, and the preservative efficacy was evaluated on the reduction in count of viable bacteria. The following test microorganisms are challenged: Staphylococcus aureus IFO 13276, Escherichia coli IFO 3972, and Pseudomonas aeruginosa IFO 13275.

[2] = system: Escherichia coli IFO 3972; assay: MIC by agar plate method; assay type: cell-based; conditions: SCD agar medium
Method: (§1) The minimum inhibitory concentration (MIC) of benzyloxyethanol against bacteria and fungi was determined by means of the agar plate method. There were employed the following microbial strains: Staphylococcus aureus IFO 13276, Escherichia coli IFO 3972, Pseudomonas aeruginosa IFO 13275, and Alcaligenes faecalis IFO 13111, and the following fungal strains: Penicillium citrinum IFO 6352 , Cladosporium cladosporoides IFO 6348 and Aspergillus niger IFO 6341. The media used in the test […] agar medium (product of Wako Pure Chemical Industries, Ltd.) for the bacteria, and GP agar medium (product of Wako Pure Chemical Industries, Ltd.) for the fungi, to which various concentration of benzyloxyethanol was added.

[3] = system: Alcaligenes faecalis IFO 13111; assay: MIC by agar plate method; assay type: cell-based; conditions: SCD agar medium
Method: as §1

[4] = system: Staphylococcus aureus IFO 13276; assay: MIC by agar plate method; assay type: cell-based; conditions: SCD agar medium
Method: as §1

[5] = system: Aspergillus niger IFO 6341; assay: MIC by agar plate method; assay type: cell-based; conditions: GP agar medium
Method: as §1

[6] = system: Cladosporium cladosporoides IFO 6348; assay: MIC by agar plate method; assay type: cell-based; conditions: GP agar medium
Method: as §1

[7] = system: Penicillium citrinum IFO 6352; assay: MIC by agar plate method; assay type: cell-based; conditions: GP agar medium
Method: as §1

[8] = system: Pseudomonas aeruginosa IFO 13275; assay: MIC by agar plate method; assay type: cell-based; conditions: SCD agar medium
Method: as §1

[9] = guinea pig, in vivo
Method: Guinea pig maximization test was performed. Specifically, groups of guinea pigs, each group consisting of 10 guinea pigs, were employed, and each animal was given interedermal injection of.0.3(W/V)% benzyloxyethanol and 30(W/V)% benzyloxyethanol was applied occlusive patch. Subsequently, challenge was performed at a concentration of benzyloxyethanol at which no irritation occurs.

MIC (%) [2] [%]	MIC (%) [3] [%]	MIC (%) [4] [%]	MIC (%) [5] [%]	MIC (%) [6] [%]	MIC (%) [7] [%]	MIC (%) [8] [%]	positive rate [9] [%]	Structure (SMILES)	available amounts for the required reduction were reduced by [1] [%]
								COC(=O)c1ccc(O)cc1 [methyl paraben, reference compound]	75
0.8	0.8	1.4	0.8	0.2	0.8	1.0	0	OCCOCc1ccccc1 [benzyloxyethanol]	40
